In US20250179040A1, “HISTAMINE H3 RECEPTOR ANTAGONISTS AND THEIR PHARMACEUTICAL USES” (HANGZHOU BIO-SINCERITY PHARMA-TECH CO., LTD., priority 2022, published 2025):

Tests used:
histamine H3 receptor = histamine H3 receptor (Homo sapiens, UniProt Q9Y5N1); assay: FLPPR assay, antagonistic activity on histamine H3 receptor; type: cell-based; conditions: for inhibition at 0.005 µM: read-out: % Inh-AVERAGE @ 5 nM; for inhibition at 0.05 µM: read-out: % Inh-AVERAGE @ 50 nM
Procedure: The FLPPR assay (NIH Assay Guidance Manual: HTS Assay Validation-Section 4.3. Analysis (Potency), htpps://www.ncbi.nlm.nih.gov/books/NBK83783) was performed using SUVN-G3031 as a positive control, and 21 target compounds were tested for the antagonistic activity target to histamine H3 receptor.

hERG channel = hERG channel (Homo sapiens, UniProt Q12809); assay: in vitro; conditions: Average inhibition rate (%) on hERG channel
Source text: In cardiomyocytes, inhibition of the delayed rectifier potassium current (IKr) channel protein encoded by the human Ether-a-go-go Related Gene (hERG) is the most important mechanism by which drugs lead to prolongation of the QT interval. hERG is characterized by a specific molecular structure, which allows it to be inhibited by different structures, leading to severe arrhythmias. Statistically, 25-40% of lead compounds show varying degrees of hERG-related toxicity. Therefore, early evaluation of the effects of compounds on hERG is crucial in the drug development process.
The inhibition rate of compounds on hERG channels was examined by manual membrane clamp technique on HEK293 cell line which is stably expressing hERG ion channels.

CCI model rats = assay: Analgesic effect, chronic constriction injury (CCI) model, mechanical withdrawal threshold; type: in vivo, SD rats
Source text: Exposing the sciatic nerve on male SD rats' (180-200 g) right hind leg, in the anterior segment where the sciatic nerve is about to bifurcate, use sterile chromic gut thread (No. 4, 0.15 mm in diameter) to ligate 4 loops loosely, with each loop 1-2 mm apart, and suture the muscle and skin to establish the chronic constriction injury (CCI) model. In the sham-operated group, only the sciatic nerve was exposed without ligation, and the muscle and skin were sutured. The mechanical withdrawal threshold was detected by electronic analgesia meter (IITC-2391) on the 7th day for 2 consecutive days.
The CCI model rats with stabilized mechanical withdrawal thresholds were randomly divided into five groups, named model group (model), pregabalin group (Pre, 30 mg/kg), BIOS-B-12 compound group (3 mg/kg), BIOS-B-12 compound group (1 mg/kg), and BIOS-B-12 compound group (0.3 mg/kg), and were administered at 1 mL/100 g by gavage, and the same column of saline was gavaged in Sham an model group. The basic value was determined before drug administration, and the mechanical withdrawal thresholds were detected at 0.5 h, 1 h, 2 h, 4 h, 6 h, and 24 h after a single drug administration, and the p value was calculated by ANOVA with T-test.
The CCI model rats with stabilized mechanical withdrawal thresholds were randomly divided into three groups, named model group (model), pregabalin group (Pre, 30 mg/kg), and BIOS-B-14 compound group (1 mg/kg), and were administered at 1 mL/100 g by gavage, and the same column of saline was gavaged in Sham and model group. The basic value was determined before drug administration, and the mechanical withdrawal thresholds were detected at 0.5 h, 1 h, 2 h, 4 h, and 6 h after a single drug administration, and the p value was calculated by ANOVA with T-test.

[1] = test system: histamine-induced scratching; assay: Antipruritic ability, histamine-induced scratching in mice; type: in vivo, C57BL/6J mice; conditions: for Inhibition Rate (%) of number of scratches: BIOS-B-12 10 mg/kg 4 h, BIOS-B-18 10 mg/kg 1 h, Dex 3 mg/kg 1 h before histamine 500 μg/50 μL s.c., observed 30 min, (Model-Compound)/Model×100%
Procedure: The C57BL/6J male mice, with 6-8 weeks old, were randomly divided into model group (Model), BIOS-B-12 compound group (10 mg/kg), BIOS-B-18 compound group (10 mg/kg) and dexamethasone group (Dex, 3 mg/kg), with 7 animals in each group. The mice were injected subcutaneously with 500 μg/50 μL histamine at the back of the neck after the administration of dexamethasone for 1 h, BIOS-B-12 for 4 h, and BIOS-B-18 for 1 h, respectively, and immediately observed for 30 min. The number of scratched was recorded and the inhibition rate was calculated as (Model-Compound)/Model×100%.

hERG channel, sequence (Q12809 whole entry): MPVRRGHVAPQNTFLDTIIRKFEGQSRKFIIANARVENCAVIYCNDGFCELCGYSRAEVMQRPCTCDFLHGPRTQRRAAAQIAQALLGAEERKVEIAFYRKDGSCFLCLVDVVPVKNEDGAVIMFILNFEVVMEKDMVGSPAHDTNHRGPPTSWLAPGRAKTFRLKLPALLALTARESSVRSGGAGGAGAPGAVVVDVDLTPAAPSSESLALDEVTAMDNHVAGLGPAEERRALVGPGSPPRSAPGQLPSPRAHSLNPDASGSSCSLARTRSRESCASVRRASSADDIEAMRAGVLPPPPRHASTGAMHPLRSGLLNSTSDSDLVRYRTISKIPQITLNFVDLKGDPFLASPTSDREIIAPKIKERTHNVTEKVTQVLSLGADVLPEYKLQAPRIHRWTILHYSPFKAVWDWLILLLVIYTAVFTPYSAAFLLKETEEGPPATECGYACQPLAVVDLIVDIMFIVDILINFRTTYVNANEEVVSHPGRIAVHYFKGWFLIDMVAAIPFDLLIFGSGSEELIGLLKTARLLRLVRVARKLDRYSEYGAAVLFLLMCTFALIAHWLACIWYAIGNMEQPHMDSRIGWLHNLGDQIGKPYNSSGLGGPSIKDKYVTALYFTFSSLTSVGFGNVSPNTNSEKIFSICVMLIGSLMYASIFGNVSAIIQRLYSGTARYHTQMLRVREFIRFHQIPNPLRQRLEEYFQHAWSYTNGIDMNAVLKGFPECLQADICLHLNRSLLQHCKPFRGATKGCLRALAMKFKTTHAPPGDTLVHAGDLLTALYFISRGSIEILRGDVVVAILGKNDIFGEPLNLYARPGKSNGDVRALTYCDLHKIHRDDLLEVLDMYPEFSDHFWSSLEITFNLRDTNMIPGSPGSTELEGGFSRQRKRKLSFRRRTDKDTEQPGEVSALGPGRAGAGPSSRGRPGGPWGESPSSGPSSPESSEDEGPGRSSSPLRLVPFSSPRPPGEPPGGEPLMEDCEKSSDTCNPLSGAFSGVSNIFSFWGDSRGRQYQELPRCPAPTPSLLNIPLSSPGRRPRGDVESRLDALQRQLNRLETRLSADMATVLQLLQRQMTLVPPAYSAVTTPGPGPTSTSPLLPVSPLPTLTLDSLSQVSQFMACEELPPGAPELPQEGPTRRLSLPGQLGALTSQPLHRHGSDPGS
histamine H3 receptor, sequence (Q9Y5N1 whole entry, species assumed): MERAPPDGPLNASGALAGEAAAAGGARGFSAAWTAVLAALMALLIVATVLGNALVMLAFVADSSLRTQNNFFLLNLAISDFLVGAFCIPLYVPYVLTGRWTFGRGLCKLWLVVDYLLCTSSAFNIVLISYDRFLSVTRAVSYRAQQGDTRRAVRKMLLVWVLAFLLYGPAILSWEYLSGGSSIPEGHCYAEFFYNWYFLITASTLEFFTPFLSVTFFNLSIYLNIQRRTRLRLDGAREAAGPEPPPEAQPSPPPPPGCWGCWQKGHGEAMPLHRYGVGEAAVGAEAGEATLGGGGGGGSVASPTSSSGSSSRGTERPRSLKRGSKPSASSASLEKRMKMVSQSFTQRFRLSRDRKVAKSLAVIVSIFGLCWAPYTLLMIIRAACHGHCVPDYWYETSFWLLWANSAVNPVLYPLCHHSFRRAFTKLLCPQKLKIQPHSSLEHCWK

O=C(CN1CCOCC1)Nc1ccc(OC2CC(N3CCCCC3)C2)cc1 (stereo not shown) [BIOS-B-1, 2-morpholino-N-(4-(3-(piperidin-1-yl)cyclobutoxy)phenyl)acetamide]
inhibition at 0.005 µM (histamine H3 receptor): 91.7% | inhibition at 0.05 µM (histamine H3 receptor): 100% | inhibition at 10 µM (hERG channel): 8.54%

C[C@@H]1CCCN1CC(=O)Nc1ccc(OC2CC(N3CCCCC3)C2)cc1 (stereo partly drawn) [BIOS-B-2, (R)-2-(2-methylpyrrolidin-1-yl)-N-(4-(3-(piperidin-1-yl)cyclobutoxy)phenyl)acetamide]
inhibition at 0.005 µM (histamine H3 receptor): 100% | inhibition at 0.05 µM (histamine H3 receptor): 100%

O=C(CN1CCCCC1)Nc1ccc(OC2CC(N3CCCCC3)C2)cc1 (stereo not shown) [BIOS-B-3, 2-(piperidin-1-yl)-N-(4-(3-(piperidin-1-yl)cyclobutoxy)phenyl)acetamide]
inhibition at 0.005 µM (histamine H3 receptor): 95.6% | inhibition at 0.05 µM (histamine H3 receptor): 99.4%

CN1CCCN(CC(=O)Nc2ccc(OC3CC(N4CCCCC4)C3)cc2)CC1 (stereo not shown) [BIOS-B-4, 2-(4-methyl-1,4-diazepan-1-yl)-N-(4-(3-(piperidin-1-yl)cyclobutoxy)phenyl)acetamide]
inhibition at 0.005 µM (histamine H3 receptor): 101% | inhibition at 0.05 µM (histamine H3 receptor): 100%

O=C(CN1CCC(F)(F)CC1)Nc1ccc(OC2CC(N3CCCCC3)C2)cc1 (stereo not shown) [BIOS-B-5, 2-(4,4-difluoropiperidin-1-yl)-N-(4-(3-(piperidin-1-yl)cyclobutoxy)phenyl)acetamide]
inhibition at 0.005 µM (histamine H3 receptor): 98.9% | inhibition at 0.05 µM (histamine H3 receptor): 99.9%

O=C(CN1CCC(O)CC1)Nc1ccc(OC2CC(N3CCCCC3)C2)cc1 (stereo not shown) [BIOS-B-6, 2-(4-hydroxypiperidin-1-yl)-N-(4-(3-(piperidin-1-yl)cyclobutoxy)phenyl)acetamide]
inhibition at 0.005 µM (histamine H3 receptor): 103% | inhibition at 0.05 µM (histamine H3 receptor): 99.8%

O=C(CN1CCSCC1)Nc1ccc(OC2CC(N3CCCCC3)C2)cc1 (stereo not shown) [BIOS-B-7, N-(4-(3-(piperidin-1-yl)cyclobutoxy)phenyl)-2-thiomorpholinoacetamide]
inhibition at 0.005 µM (histamine H3 receptor): 88.3% | inhibition at 0.05 µM (histamine H3 receptor): 99.5%

O=C(CN1CCCC(CCO)C1)Nc1ccc(OC2CC(N3CCCCC3)C2)cc1 (stereo not shown) [BIOS-B-8, 2-(3-(2-hydroxyethyl)piperidin-1-yl)-N-(4-(3-(piperidin-1-yl)cyclobutoxy)phenyl)acetamide]
inhibition at 0.005 µM (histamine H3 receptor): 101% | inhibition at 0.05 µM (histamine H3 receptor): 99.5% | inhibition at 10 µM (hERG channel): 4.82%

O=C(CN1CCNCC1)Nc1ccc(OC2CC(N3CCCCC3)C2)cc1 (stereo not shown) [BIOS-B-9, 2-(piperazin-1-yl)-N-(4-(3-(piperidin-1-yl)cyclobutoxy)phenyl)acetamide]
inhibition at 0.005 µM (histamine H3 receptor): 101% | inhibition at 0.05 µM (histamine H3 receptor): 99.6% | inhibition at 10 µM (hERG channel): -1.03%

CN1CCN(CC(=O)Nc2ccc(OC3CC(N4CCCCC4)C3)cc2)CC1 (stereo not shown) [BIOS-B-10, 2-(4-methylpiperazin-1-yl)-N-(4-(3-(piperidin-1-yl)cyclobutoxy)phenyl)acetamide]
inhibition at 0.005 µM (histamine H3 receptor): 99.5% | inhibition at 0.05 µM (histamine H3 receptor): 97.5% | inhibition at 10 µM (hERG channel): -1.26%

O=C(CN1CCCC(O)C1)Nc1ccc(OC2CC(N3CCCCC3)C2)cc1 (stereo not shown) [BIOS-B-11, 2-(3-hydroxypiperidin-1-yl)-N-(4-(3-(piperidin-1-yl)cyclobutoxy)phenyl)acetamide]
inhibition at 0.005 µM (histamine H3 receptor): 97% | inhibition at 0.05 µM (histamine H3 receptor): 99.4% | inhibition at 10 µM (hERG channel): 2.96%

O=C(NCCN1CCOCC1)Nc1ccc(OC2CC(N3CCCCC3)C2)cc1 (stereo not shown) [BIOS-B-13, 1-(2-morpholinoethyl)-3-(4-(3-(piperidin-1-yl)cyclobutoxy)phenyl)urea]
inhibition at 0.005 µM (histamine H3 receptor): 99.6% | inhibition at 0.05 µM (histamine H3 receptor): 99.8% | inhibition at 10 µM (hERG channel): -1.47%

C[C@@H]1CCCN1CCNC(=O)Nc1ccc(OC2CC(N3CCCCC3)C2)cc1 (stereo partly drawn) [BIOS-B-14, (R)-1-(2-(2-methylpyrrolidin-1-yl)ethyl)-3-(4-(3-(piperidin-1-yl)cyclobutoxy)phenyl)urea]
inhibition at 0.005 µM (histamine H3 receptor): 100% | inhibition at 0.05 µM (histamine H3 receptor): 101% | mechanical withdrawal thresholds vs model group (CCI model rats; 1 mg/kg single dose by gavage, 0.5 h to 5 h after administration, P<0.05, FIG. 2): significantly increased | period of analgesia time compared with pregabalin (CCI model rats; BIOS-B-14 1 mg/kg vs pregabalin 30 mg/kg, FIG. 2 study): longer period of analgesia time than that of pregabalin | inhibition at 10 µM (hERG channel): 0.17%

O=C(NCCN1CCCCC1)Nc1ccc(OC2CC(N3CCCCC3)C2)cc1 (stereo not shown) [BIOS-B-15, 1-(4-(3-(piperidin-1-yl)cyclobutoxy)phenyl)-3-(2-(piperidin-1-yl)ethyl)urea]
inhibition at 0.005 µM (histamine H3 receptor): 99% | inhibition at 0.05 µM (histamine H3 receptor): 100% | inhibition at 10 µM (hERG channel): -0.12%

CN1CCCN(CCNC(=O)Nc2ccc(OC3CC(N4CCCCC4)C3)cc2)CC1 (stereo not shown) [BIOS-B-17, 1-(2-(4-methyl-1,4-diazepan-1-yl)ethyl)-3-(4-(3-(piperidin-1-yl)cyclobutoxy)phenyl)urea]
inhibition at 0.005 µM (histamine H3 receptor): 101% | inhibition at 0.05 µM (histamine H3 receptor): 99.4% | inhibition at 10 µM (hERG channel): 1.52%

O=C(NCCN1CCC(F)(F)CC1)Nc1ccc(OC2CC(N3CCCCC3)C2)cc1 (stereo not shown) [BIOS-B-18, 1-(2-(4,4-difluoropiperidin-1-yl)ethyl)-3-(4-(3-(piperidin-1-yl)cyclobutoxy)phenyl)urea]
inhibition at 0.005 µM (histamine H3 receptor): 99.7% | inhibition at 0.05 µM (histamine H3 receptor): 99.9% | number of histamine-induced scratched in mice ([1]; 10 mg/kg): reduced | antipruritic effect compared with positive control dexamethasone ([1]; 10 mg/kg vs dexamethasone 3 mg/kg): more effective than the positive control | Inhibition Rate (%) of number of scratches [1]: 55.0% | inhibition at 10 µM (hERG channel): -0.65%

O=C(NCCN1CCC(O)CC1)Nc1ccc(OC2CC(N3CCCCC3)C2)cc1 (stereo not shown) [BIOS-B-19, 1-(2-(4-hydroxypiperidin-1-yl)ethyl)-3-(4-(3-(piperidin-1-yl)cyclobutoxy)phenyl)urea]
inhibition at 0.005 µM (histamine H3 receptor): 101% | inhibition at 0.05 µM (histamine H3 receptor): 101% | inhibition at 10 µM (hERG channel): -0.09%

O=C(NCCN1CCSCC1)Nc1ccc(OC2CC(N3CCCCC3)C2)cc1 (stereo not shown) [BIOS-B-20, 1-(4-(3-(piperidin-1-yl)cyclobutoxy)phenyl)-3-(2-thiomorpholinoethyl)urea]
inhibition at 0.005 µM (histamine H3 receptor): 100% | inhibition at 0.05 µM (histamine H3 receptor): 101% | inhibition at 10 µM (hERG channel): -0.66%

CN1CCN(CCNC(=O)Nc2ccc(OC3CC(N4CCCCC4)C3)cc2)CC1 (stereo not shown) [BIOS-B-22, 1-(2-(4-methylpiperazin-1-yl)ethyl)-3-(4-(3-(piperidin-1-yl)cyclobutoxy)phenyl)urea]
inhibition at 0.005 µM (histamine H3 receptor): 101% | inhibition at 0.05 µM (histamine H3 receptor): 99.5% | inhibition at 10 µM (hERG channel): -2.43%

O=C(NCCN1CCCC(O)C1)Nc1ccc(OC2CC(N3CCCCC3)C2)cc1 (stereo not shown) [BIOS-B-23, 1-(2-(3-hydroxypiperidin-1-yl)ethyl)-3-(4-(3-(piperidin-1-yl)cyclobutoxy)phenyl)urea]
inhibition at 0.005 µM (histamine H3 receptor): 100% | inhibition at 0.05 µM (histamine H3 receptor): 100% | inhibition at 10 µM (hERG channel): 0.37%

C[C@@H]1C[C@H]2[C@@H]3CCC4=CC(=O)C=C[C@]4(C)[C@@]3(F)[C@@H](O)C[C@]2(C)[C@@]1(O)C(=O)CO [Dex, dexamethasone, reference compound]
Inhibition Rate (%) of number of scratches [1]: 29.3%

CC(C)C[C@H](CN)CC(=O)O [Pregabalin, pregabalin, reference compound]
mechanical withdrawal thresholds vs model group (CCI model rats; 30 mg/kg single dose by gavage, only from 0.5 h to 1 h after administration, FIG. 2 study): significantly different | mechanical withdrawal thresholds vs model group (CCI model rats; 30 mg/kg single dose by gavage, only from 0.5 h to 2 h after administration, FIG. 1 study): significantly different

O=C(CN1CCOCC1)Nc1ccc(OC2CCN(C3CCC3)CC2)cc1 [SUVN-G3031, Samelisant, reference compound]
inhibition at 0.005 µM (histamine H3 receptor): 57.8% | inhibition at 0.05 µM (histamine H3 receptor): 85.8%
